Test results as given in paper PMC10415494, “Ga(III) pyridinecarboxylate complexes: potential analogues of the second generation of therapeutic Ga(III) complexes?” (Journal of Biological Inorganic Chemistry, 2023).
Read-outs that look alike come from different tables or passages of the source.

Assays:
[1] = Potentiometric determination of ligand protonation (dissociation) constants; assay type: physicochemical; details: 25 °C, I(KNO3) = 0.1 M
Procedure: The stock solution of HPic and H2Dpic was prepared by dissolving in demineralized water (c(ligand) = 0.02 M). The gallium(III) ion solution was prepared from anhydrous gallium(III) nitrate (c(Ga^3+) = 0.05 M) and was standardized by back titration of excess of EDTA with zinc(II). Decarbonated potassium hydroxide solution (approx. 0.2 M) was used as a titrant that was standardized by potassium hydrogen phthalate (c(KHP) = 0.1 M). Standard inert electrolyte of nitric acid was used in all titrations (c(HNO3) = 0.03 M, I(HNO3/KNO3) = 0.1 M). Potentiometric measurements were carried out using a TitroLine 7000 dosage system with a BlueLine combination electrode (SI Analytics) in a glass vessel (5 mL) thermostated at 25 ± 0.1 °C at an ionic strength I(KNO3) = 0.1 M. Inert atmosphere was ensured by a constant flow of a nitrogen gas. Precise calibration of the electrode was carried out by the titration of 0.03 M HNO3 with 0.2 M KOH in the range –log[H^+] = 1.8–12.0, with the pH-meter yielding E values. The relation between E and –log[H^+] is expressed by Eq. (1) where the term E^0 contains the standard potentials of the electrode and the contribution of inert ions to the liquid-junction potential. The value S corresponds to the Nernstian slope, the value of which should be close to the theoretical value, and j1[H^+] and j2[OH^–] = j2Kw/[H^+] are contributions of the H^+ and OH^– ions, respectively, to the liquid-junction potential. The pKw value was 13.78 in Eq. (1).1 E=E^0-S-logH^++j1H^++j2Kw/H^+
The parameters j1 and j2 cause deviation from linear dependence between E and –log[H^+] only in strongly acidic and strongly alkaline solutions. The picolinic and dipicolinic acid protonation constants were determined with ligand concentration 0.004 M. The stability constants in the Ga-HPic and Ga-H2Dpic binary system were determined by the ligand concentrations 0.004 and the Ga^3+ concentration was 0.004, 0.002 and 0.001 M in dependence on the ligand to metal ratio.
The protonation constants β110, β210 are the concentration constants and are defined by β110 = [HL]/ [H][L], β210 = [H2L]/ [H]^2[L] (pK2 = logβ110, pK1 = logβ210- logβ110); the stability constants are defined by βrqp = [HrLqMp]/[H]^r[L]^q[M]^p. The equilibrium constants were obtained by fitting the titration data with OPIUM [23]. The following hydrolysis constants were used for the calculations: βpr = [Mp(OH)r^3−r][H]^r/[M]^p; log β11 = − 2.74; log β12 = − 7.0; log β13 = − 11.96; log β14 = − 15.52 [24].

[2] = system: Candida parapsilosis (C. parapsilosis) ATCC 22019; assay: Antimicrobial activity, macrodilution method (yeast, growth by A590); assay type: cell-based; details: Lodderomyces parapsilosis
[3] = system: HeLa (human cervical adenocarcinoma); assay: MTS antiproliferative assay; details: Homo sapiens, HeLa, 72 h, read-out: Cytotoxic activity IC50 HeLa
[4] = system: Jurkat (human leukaemic T cell lymphoma); assay: MTS antiproliferative assay; details: Homo sapiens, Jurkat, 72 h, read-out: Cytotoxic activity IC50 Jurkat
[5] = system: MDA-MB-231 (human mammary gland adenocarcinoma); assay: MTS antiproliferative assay; details: Homo sapiens, MDA-MB-231, 72 h, read-out: Cytotoxic activity IC50 MDA-MB-231
[6] = system: PaTu 8902 (human pancreatic adenocarcinoma); assay: MTS antiproliferative assay; details: Homo sapiens, PaTu 8902, 72 h, read-out: Cytotoxic activity IC50 PaTu 8902

Compound	dissociation constant pK2 [1]	dissociation constant pK3 [1]	IC50 ([2]; ATCC22019, read-out: IC50 C. parapsilosis) [µM]	IC50 [3] [µM]	IC50 [4] [µM]	IC50 [5] [µM]	IC50 [6] [µM]	dissociation constant pK1 [1]	IC50 ([2]; ATCC22019, Yeast, Sabouraud's growth medium, 37 °C, read-out: IC50 C. parapsilosis) [µM]
O=C(O)c1cccc(C(=O)O)n1 [H2Dpic, dipicolinic acid]	2.02	4.74	> 1000	> 200	> 200	> 200	> 200	–	–
O=C(O)c1ccccn1 [HPic, picolinic acid]	5.25	–	–	> 200	> 200	> 200	> 200	1.17	> 500
